According to PMC5686171 (Scientific Reports, 2017):
Like-named read-outs stand apart in the source and are kept apart here.

Columns and labels:
β2γ2 GABAA receptors = molecular target: T1, β2γ2 GABAA receptors (Rattus norvegicus, UniProt P18508+P63138); test: Two-electrode voltage clamp, wild type β2γ2 receptors expressed in Xenopus oocytes; format: cell-based; conditions: for GABA current amplitude: 10 mM GABA; for DZ potentiation: 1 µM diazepam, GABA eliciting 1–5% of maximal current
T1 construct: expressed in transfected cells; host or cells: Xenopus laevis oocytes (cRNA injection, β2:γ2 1:3)
Description: (§1) Animal experiments were carried out in strict accordance to the Swiss ethical guidelines, and have been approved by the local committee of the Canton Bern Kantonstierarzt, Kantonaler Veterinärdienst Bern (BE85/15). Surgery of Xenopus laevis to obtain the oocytes was done under anesthesia, and all efforts were made to diminish animal suffering. Oocytes were prepared, injected and defolliculated as described previously[41],[42]. Polyadenylated cRNA coding for the subunits of GABAA receptors were prepared in vitro with the mMESSAGE mMACHINE kit (Ambion, Austin, TX, USA). Oocytes were injected with 50 nl of solution containing cRNA coding for wild type or mutants β2 (1 fMol) or γ2 (3 fMol) subunits and then incubated in modified Barth’s solution (10 mM HEPES, pH 7.5, 88 mM NaCl, 1 mM KCl, 2.4 mM NaHCO3, 0.82 mM MgSO4, 0.34 mM Ca(NO3)2, 0.41 mM CaCl2, 100 units/ml penicillin, 100 µg/ml streptomycin) at 18 °C for 5–7 days before measurements.
(§2) Electrophysiological experiments were performed using an Oocyte Clamp OC-725 (Warner Instrument Corp., Hamden, USA) two-electrode voltage clamp amplifier. Currents were digitized at 5 kHz with MacLab/200 (AD Instruments, Spechbach, Germany).
(§3) The holding potential was −80 mV. The perfusion medium contained 90 mM NaCl, 1 mM KCl, 1 mM MgCl2, 1 mM CaCl2 and 5 mM Na-HEPES (pH 7.4). The perfusion solution (6 ml/min) was applied through a glass capillary with an inner diameter of 1.35 mm, the mouth of which was placed about 0.5 mm from the surface of the oocyte. […] Maximal current amplitudes (Imax) were obtained from the fits of the concentration-response curves. The individual curves were fitted and standardized to Imax and subsequently averaged. […] The duration of washout periods was 4 min in between agonist or agonist/drug applications to prevent receptor desensitization. […]

β2 = molecular target: T2, β2 (Rattus norvegicus, UniProt P63138); test: Two-electrode voltage clamp, β2 subunit expressed alone in Xenopus oocytes; format: cell-based
T2 construct: expressed in transfected cells; host or cells: Xenopus laevis oocytes (cRNA injection)
Description: as §1, §2
(§4) The holding potential was −80 mV. The perfusion medium contained 90 mM NaCl, 1 mM KCl, 1 mM MgCl2, 1 mM CaCl2 and 5 mM Na-HEPES (pH 7.4). […]

γ2 = molecular target: T3, γ2 (Rattus norvegicus, UniProt P18508); test: Two-electrode voltage clamp, γ2 subunit expressed alone in Xenopus oocytes; format: cell-based
T3 construct: expressed in transfected cells; host or cells: Xenopus laevis oocytes (cRNA injection)
Description: as §1, §2, §4

β2Y62Lγ2 = molecular target: T4, β2Y62Lγ2 (Rattus norvegicus, UniProt P18508+P63138, Y86L); test: Two-electrode voltage clamp, mutant β2Y62Lγ2 in Xenopus oocytes; format: cell-based; conditions: for DZ potentiation: 1 µM diazepam
T4 construct: expressed in transfected cells; host or cells: Xenopus laevis oocytes (cRNA injection, β2:γ2 1:3)
Description: (§5) The point mutations β2Y62Lγ2, β2T202Aγ2, β2T202Sγ2, β2Y205Sγ2, β2Y205Qγ2, β2γ2F77Y, β2γ2S217A, β2γ2Y220S and β2γ2Y220Q were prepared using the QuickChange^TM mutagenesis kit (Stratagene, Agilent Technologies, Basel, Switzerland).
as §1, §2, §3

β2T202Sγ2 = molecular target: T5, β2T202Sγ2 (Rattus norvegicus, UniProt P18508+P63138, T226S); test: Two-electrode voltage clamp, mutant β2T202Sγ2 in Xenopus oocytes; format: cell-based; conditions: for DZ potentiation: 1 µM diazepam
T5 construct: expressed in transfected cells; host or cells: Xenopus laevis oocytes (cRNA injection, β2:γ2 1:3)
Description: as §5, §1, §2, §3

γ2F77Yβ2 = molecular target: T6, γ2F77Yβ2 (Rattus norvegicus, UniProt P18508+P63138, F115Y); test: Two-electrode voltage clamp, mutant γ2F77Yβ2 in Xenopus oocytes; format: cell-based; conditions: for DZ potentiation: 1 µM diazepam
T6 construct: expressed in transfected cells; host or cells: Xenopus laevis oocytes (cRNA injection, β2:γ2 1:3)
Description: as §5, §1, §2, §3

γ2S217Aβ2 = molecular target: T7, γ2S217Aβ2 (Rattus norvegicus, UniProt P18508+P63138, S255A); test: Two-electrode voltage clamp, mutant γ2S217Aβ2 in Xenopus oocytes; format: cell-based; conditions: for DZ potentiation: 1 µM diazepam
T7 construct: expressed in transfected cells; host or cells: Xenopus laevis oocytes (cRNA injection, β2:γ2 1:3)
Description: as §5, §1, §2, §3

γ2Y220Qβ2 = molecular target: T8, γ2Y220Qβ2 (Rattus norvegicus, UniProt P18508+P63138, Y258Q); test: Two-electrode voltage clamp, mutant γ2Y220Qβ2 in Xenopus oocytes; format: cell-based; conditions: for DZ potentiation: 1 µM diazepam
T8 construct: expressed in transfected cells; host or cells: Xenopus laevis oocytes (cRNA injection, β2:γ2 1:3)
Description: as §5, §1, §2, §3

β2T202Aγ2 = molecular target: T9, β2T202Aγ2 (Rattus norvegicus, UniProt P18508+P63138, T226A); test: Two-electrode voltage clamp, mutant β2T202Aγ2 in Xenopus oocytes; format: cell-based; conditions: 50 µM etomidate
T9 construct: expressed in transfected cells; host or cells: Xenopus laevis oocytes (cRNA injection, β2:γ2 1:3)
Description: as §5, §1
(§6) Electrophysiological experiments were performed using an Oocyte Clamp OC-725 (Warner Instrument Corp., Hamden, USA) two-electrode voltage clamp amplifier. […]

β2Y205Sγ2 = molecular target: T10, β2Y205Sγ2 (Rattus norvegicus, UniProt P18508+P63138, Y229S); test: Two-electrode voltage clamp, mutant β2Y205Sγ2 in Xenopus oocytes; format: cell-based; conditions: 50 µM etomidate
T10 construct: expressed in transfected cells; host or cells: Xenopus laevis oocytes (cRNA injection, β2:γ2 1:3)
Description: as §5, §1, §6

β2Y205Qγ2 = molecular target: T11, β2Y205Qγ2 (Rattus norvegicus, UniProt P18508+P63138, Y229Q); test: Two-electrode voltage clamp, mutant β2Y205Qγ2 in Xenopus oocytes; format: cell-based; conditions: 50 µM etomidate
T11 construct: expressed in transfected cells; host or cells: Xenopus laevis oocytes (cRNA injection, β2:γ2 1:3)
Description: as §5, §1, §6

γ2Y220Sβ2 = molecular target: T12, γ2Y220Sβ2 (Rattus norvegicus, UniProt P18508+P63138, Y258S); test: Two-electrode voltage clamp, mutant γ2Y220Sβ2 in Xenopus oocytes; format: cell-based; conditions: 50 µM etomidate
T12 construct: expressed in transfected cells; host or cells: Xenopus laevis oocytes (cRNA injection, β2:γ2 1:3)
Description: as §5, §1, §6

α1β2Y62Lγ2 receptors = test: Effect of mutation β2Y62L in α1β2γ2 receptors; format: cell-based; conditions: 50 µM etomidate vs GABA
α1T206C in α1β2γ2 = conditions: ref [12],[27]; cited from earlier work
α1T206V in α1β2γ2 = conditions: ref [28]; cited from earlier work
γ2F77Y in α1β2γ2 = conditions: ref [29], cited from earlier work
α1T206A in α1β2γ2 = conditions: ref [26]; cited from earlier work
[1] = tested on: mice carrying a point mutation in all those four alpha subunits; design: method as in Ralvenius et al.[40]; conditions: point-mutated mice, 10 mg/kg diazepam, ref Ralvenius et al.[40], cited from earlier work
α1β2γ2 = conditions: read-out: EC50 of diazepam; cited from earlier work

T4 sequence (P63138 25-474 Y86L limits assumed): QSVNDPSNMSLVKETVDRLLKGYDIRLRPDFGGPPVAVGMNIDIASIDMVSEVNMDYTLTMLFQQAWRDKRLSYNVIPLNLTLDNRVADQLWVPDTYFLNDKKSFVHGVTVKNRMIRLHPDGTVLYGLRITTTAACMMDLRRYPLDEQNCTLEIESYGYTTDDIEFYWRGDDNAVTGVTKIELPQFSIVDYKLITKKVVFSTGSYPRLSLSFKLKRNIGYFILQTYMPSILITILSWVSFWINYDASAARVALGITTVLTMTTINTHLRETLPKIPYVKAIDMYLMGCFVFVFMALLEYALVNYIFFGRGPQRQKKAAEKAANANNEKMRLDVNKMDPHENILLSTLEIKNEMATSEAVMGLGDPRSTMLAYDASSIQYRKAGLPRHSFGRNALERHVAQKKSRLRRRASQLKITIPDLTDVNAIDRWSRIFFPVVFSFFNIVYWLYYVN
T4 sequence (P18508 39-466): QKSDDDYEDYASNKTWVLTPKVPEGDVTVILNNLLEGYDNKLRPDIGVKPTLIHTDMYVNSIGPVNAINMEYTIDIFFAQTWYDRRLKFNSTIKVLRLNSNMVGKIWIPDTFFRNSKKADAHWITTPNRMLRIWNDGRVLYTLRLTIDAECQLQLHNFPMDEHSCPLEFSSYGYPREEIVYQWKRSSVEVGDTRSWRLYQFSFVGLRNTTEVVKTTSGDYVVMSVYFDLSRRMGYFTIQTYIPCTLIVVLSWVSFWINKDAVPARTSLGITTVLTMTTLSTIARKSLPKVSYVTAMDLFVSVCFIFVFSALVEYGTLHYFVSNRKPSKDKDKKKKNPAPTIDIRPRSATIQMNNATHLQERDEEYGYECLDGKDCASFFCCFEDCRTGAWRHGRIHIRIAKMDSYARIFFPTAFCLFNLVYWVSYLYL
T6 sequence (P63138 25-474 limits assumed): as the sequence (P63138 25-474 Y86L limits assumed) above, with L62Y counted along it
T6 sequence (P18508 39-466 F115Y): as the sequence (P18508 39-466) above, with F77Y counted along it
T1 sequence (P63138 25-474 limits assumed): as the sequence (P63138 25-474 Y86L limits assumed) above, with L62Y counted along it
T1 sequence (P18508 39-466): as the sequence (P18508 39-466) above
T7 sequence (P63138 25-474 limits assumed): as the sequence (P63138 25-474 Y86L limits assumed) above, with L62Y counted along it
T7 sequence (P18508 39-466 S255A): as the sequence (P18508 39-466) above, with S217A counted along it
T8 sequence (P63138 25-474 limits assumed): as the sequence (P63138 25-474 Y86L limits assumed) above, with L62Y counted along it
T8 sequence (P18508 39-466 Y258Q): as the sequence (P18508 39-466) above, with Y220Q counted along it
T5 sequence (P63138 25-474 T226S limits assumed): as the sequence (P63138 25-474 Y86L limits assumed) above, with L62Y, T202S counted along it
T5 sequence (P18508 39-466): as the sequence (P18508 39-466) above
T3 sequence (P18508 39-466): as above
T2 sequence (P63138 25-474 limits assumed): as the sequence (P63138 25-474 Y86L limits assumed) above, with L62Y counted along it
T9 sequence (P63138 25-474 T226A): as the sequence (P63138 25-474 Y86L limits assumed) above, with L62Y, T202A counted along it
T9 sequence (P18508 39-466): as the sequence (P18508 39-466) above
T12 sequence (P63138 25-474 limits assumed): as the sequence (P63138 25-474 Y86L limits assumed) above, with L62Y counted along it
T12 sequence (P18508 39-466 Y258S): as the sequence (P18508 39-466) above, with Y220S counted along it
T10 sequence (P63138 25-474 Y229S): as the sequence (P63138 25-474 Y86L limits assumed) above, with L62Y, Y205S counted along it
T10 sequence (P18508 39-466): as the sequence (P18508 39-466) above
T11 sequence (P63138 25-474 Y229Q): as the sequence (P63138 25-474 Y86L limits assumed) above, with L62Y, Y205Q counted along it
T11 sequence (P18508 39-466): as the sequence (P18508 39-466) above

Compound: NCCCC(=O)O [GABA, γ-Aminobutyric acid]
- Hill coefficient of GABA (β2γ2 GABAA receptors; β2γ2): 1.0 ± 0.1
- GABA current amplitude (β2γ2 GABAA receptors; β2γ2, cRNA ratio 1:3, −80 mV): 131 ± 19 (13) nA
- GABA current amplitude (β2γ2 GABAA receptors; β2γ2 from 1:1 and 2:1 cRNA ratios): less than 100 nA
- GABA current amplitude (β2; 10 mM GABA): −4 ± 1 (4) nA
- GABA current amplitude (γ2; 10 mM GABA): −4 ± 1 (5) nA
- Hill coefficient of GABA (β2Y62Lγ2; β2Y62Lγ2): 1.0 ± 0.1
- GABA current amplitude (β2Y62Lγ2; β2Y62Lγ2, 10 mM GABA): 53 ± 8 (17) nA
- Decrease in the sensitivity for GABA (β2Y62Lγ2; β2Y62Lγ2 vs wild-type β2γ2): 3 fold
- Smaller GABA current amplitude compared to wild-type (β2Y62Lγ2; β2Y62Lγ2 vs wild-type β2γ2): 2 fold
- Hill coefficient of GABA (β2T202Sγ2; β2T202Sγ2): 0.8 ± 0.1
- GABA current amplitude (β2T202Sγ2; β2T202Sγ2, 10 mM GABA): 203 ± 18 (5) nA
- Decrease in GABA sensitivity (β2T202Sγ2; β2T202Sγ2 vs wild-type β2γ2): 42 fold
- Hill coefficient of GABA (γ2F77Yβ2): 0.9 ± 0.1
- GABA current amplitude (γ2F77Yβ2; 10 mM GABA): 148 ± 23 (11) nA
- Hill coefficient of GABA (γ2S217Aβ2; β2γ2S217A): 0.8 ± 0.1
- Decrease in sensitivity to GABA (γ2S217Aβ2; β2γ2S217A vs wild-type β2γ2): 2 fold
- GABA current amplitude (γ2S217Aβ2; γ2S217Aβ2, 10 mM GABA): 100 ± 25 (13) nA
- Hill coefficient of GABA (γ2Y220Qβ2; β2γ2Y220Q): 0.7 ± 0.1
- Decrease in sensitivity to GABA (γ2Y220Qβ2; β2γ2Y220Q vs wild-type β2γ2): 5 fold
- GABA current amplitude (γ2Y220Qβ2; γ2Y220Qβ2, 10 mM GABA): 127 ± 40 (6) nA

Compound: CCOC(=O)c1cncn1[C@H](C)c1ccccc1 [etomidate]
- Etomidate current relative to GABA current (fold larger) (β2γ2 GABAA receptors; wild type β2γ2, 50 µM etomidate vs saturating GABA): about 7 fold
- Etomidate current amplitude (β2γ2 GABAA receptors; β2γ2, 50 µM etomidate, −80 mV): 946 ± 8 (4) nA
- Etomidate current amplitude (β2; 50 µM etomidate): 4 ± 1 (4) nA
- Etomidate current amplitude (γ2; 50 µM etomidate): 0 ± 0 (5) nA
- Etomidate current amplitude (β2Y62Lγ2; β2Y62Lγ2, 50 µM etomidate): 13 ± 3 (11) nA
- Etomidate current relative to GABA current (fold smaller) (β2Y62Lγ2; β2Y62Lγ2, 50 µM etomidate vs saturating GABA): about 4 fold
- Etomidate current amplitude (β2T202Aγ2): 8 ± 2 (5) nA
- Etomidate current amplitude (β2T202Sγ2; β2T202Sγ2, 50 µM etomidate): 380 ± 77 (5) nA
- Etomidate current amplitude (β2Y205Sγ2): 0 ± 0 (5) nA
- Etomidate current amplitude (β2Y205Qγ2): 6 ± 2 (5) nA
- Etomidate current amplitude (γ2F77Yβ2; 50 µM etomidate): 193 ± 25 (4) nA
- Etomidate current amplitude (γ2S217Aβ2; γ2S217Aβ2, 50 µM etomidate): 141 ± 31 (5) nA
- Etomidate current amplitude (γ2Y220Sβ2): 76 ± 17 (5) nA
- Etomidate current amplitude (γ2Y220Qβ2; γ2Y220Qβ2, 50 µM etomidate): 777 ± 113 (5) nA
- Etomidate current relative to GABA current (fold smaller) (α1β2Y62Lγ2 receptors): about 30 fold

Compound: CN1C(=O)CN=C(c2ccccc2)c2cc(Cl)ccc21 [diazepam]
- Hill coefficient of diazepam (β2γ2 GABAA receptors; β2γ2): 0.6 ± 0.1
- DZ potentiation (β2γ2 GABAA receptors; β2γ2): 216 ± 30%
- DZ potentiation (β2γ2 GABAA receptors; β2γ2, listed as DZ): 216 ± 30 (15) %
- DZ potentiation (β2Y62Lγ2; β2Y62Lγ2): not significantly affected
- DZ potentiation (β2Y62Lγ2; β2Y62Lγ2, listed as DZ): 121 ± 12 (5) %
- DZ potentiation (β2T202Sγ2; β2T202Sγ2): not significantly affected
- DZ potentiation (β2T202Sγ2; β2T202Sγ2, listed as DZ): 100 ± 7 (4) %
- DZ potentiation (γ2F77Yβ2): nearly lost
- DZ potentiation (γ2F77Yβ2; listed as DZ): 5 ± 2 (5) %
- DZ potentiation (γ2S217Aβ2; γ2S217Aβ2): not significantly affected
- DZ potentiation (γ2S217Aβ2; γ2S217Aβ2, listed as DZ): 185 ± 23 (4) %
- DZ potentiation (γ2Y220Qβ2; γ2Y220Qβ2): not significantly affected
- DZ potentiation (γ2Y220Qβ2; γ2Y220Qβ2, listed as DZ): 127 ± 11 (6) %
- Effect on DZ affinity (α1T206C in α1β2γ2): (no effect on DZ affinity)
- Decrease in DZ affinity (α1T206V in α1β2γ2): (7-fold decrease in DZ affinity)
- Decrease in DZ affinity (γ2F77Y in α1β2γ2; listed as DZ): 230-fold decrease in DZ affinity
- Decrease in DZ affinity (γ2F77Y in α1β2γ2): abolishes the binding site
- Decrease in DZ affinity (α1T206A in α1β2γ2): (3-fold decrease in DZ affinity)
- Locomotor activity ([1]; quite prominent at higher doses): trend towards reduced locomotor activity
- Diazepam-induced muscle relaxation and motor impairment [1]: completely protected
- EC50 (α1β2γ2): 92 ± 6 nM
